{"source": "the supplement of paper PMC10307832", "data": [{"compound": "CC(O)(CS(=O)(=O)c1ccc(F)cc1)C(=O)Nc1ccc(C#N)c(C(F)(F)F)c1 [Bicalutamide] + Nc1nc2[nH]cc(CCc3ccc(C(=O)N[C@@H](CCC(=O)O)C(=O)O)cc3)c2c(=O)[nH]1 [Pemetrexed] (partner 0.2 µM)", "test": "relative viability (nuclei count vs DMSO), 5 days (fraction); higher = more cells survive", "settings": "first compound 0.08 µM", "summary_of_the_method": "(§1)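 A single step with final 0.05% Triton X-100, 1% formaldehyde and 1 ug/ml Hoechst fixed the cells and stained nuclei 5 days after treatment. Lung cancer cell lines in 1536-well plates had been treated by pin tool the day after seeding with one drug alone or a fixed anchor-drug dose plus five library-drug doses (not always all listed) in √10 steps, and nuclei were counted on 4× images. Relative viability is the ratio of nuclei in treated wells to nuclei in vehicle wells, taken as the median of duplicate plates.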", "values": [{"cell line": "NCI-H522", "relative viability": 0.923}, {"cell line": "NCI-H838", "relative viability": 0.272}, {"cell line": "NCI-H1650", "relative viability": 0.353}, {"cell line": "NCI-H2009", "relative viability": 1.13}, {"cell line": "NCI-H1993", "relative viability": 0.66}, {"cell line": "PC-14", "relative viability": 0.121}, {"cell line": "LCLC-103H", "relative viability": 0.446}, {"cell line": "NCI-H596", "relative viability": 0.489}, {"cell line": "NCI-H2228", "relative viability": 0.343}, {"cell line": "EMC-BAC-2", "relative viability": 0.447}, {"cell line": "NCI-H2087", "relative viability": 0.684}, {"cell line": "HCC-366", "relative viability": 0.16}, {"cell line": "NCI-H1666", "relative viability": 0.886}, {"cell line": "NCI-H647", "relative viability": 0.187}, {"cell line": "LK-2", "relative viability": 0.233}, {"cell line": "NCI-H2126", "relative viability": 0.675}, {"cell line": "NCI-H2342", "relative viability": 0.764}, {"cell line": "SK-MES-1", "relative viability": 1.04}, {"cell line": "H3255", "relative viability": 0.584}, {"cell line": "COR-L23", "relative viability": 0.204}, {"cell line": "COR-L 105", "relative viability": 1.25}, {"cell line": "LOU-NH91", "relative viability": 0.429}, {"cell line": "ChaGo-K-1", "relative viability": 0.256}, {"cell line": "NCI-H2170", "relative viability": 0.251}, {"cell line": "NCI-H3122", "relative viability": 0.202}, {"cell line": "HOP-62", "relative viability": 0.371}, {"cell line": "HCC-44", "relative viability": 0.675}, {"cell line": "SW 900", "relative viability": 0.444}, {"cell line": "LU99A", "relative viability": 0.19}, {"cell line": "BEN", "relative viability": 0.854}, {"cell line": "NCI-H650", "relative viability": 0.88}, {"cell line": "NCI-H1792", "relative viability": 0.825}, {"cell line": "NCI-H1563", "relative viability": 0.871}, {"cell line": "NCI-H358", "relative viability": 0.174}, {"cell line": "NCI-H661", "relative viability": 0.939}]}, {"compound": "CC(O)(CS(=O)(=O)c1ccc(F)cc1)C(=O)Nc1ccc(C#N)c(C(F)(F)F)c1 [Bicalutamide] + Nc1nc2[nH]cc(CCc3ccc(C(=O)N[C@@H](CCC(=O)O)C(=O)O)cc3)c2c(=O)[nH]1 [Pemetrexed] (partner 0.2 µM)", "test": "relative viability (nuclei count vs DMSO), 5 days (fraction); higher = more cells survive", "settings": "first compound 0.253 µM", "summary_of_the_method": "as §1", "values": [{"cell line": "NCI-H522", "relative viability": 0.854}, {"cell line": "NCI-H838", "relative viability": 0.232}, {"cell line": "NCI-H1650", "relative viability": 0.411}, {"cell line": "NCI-H2009", "relative viability": 1.04}, {"cell line": "NCI-H1993", "relative viability": 0.669}, {"cell line": "PC-14", "relative viability": 0.121}, {"cell line": "LCLC-103H", "relative viability": 0.408}, {"cell line": "NCI-H596", "relative viability": 0.459}, {"cell line": "NCI-H2228", "relative viability": 0.351}, {"cell line": "EMC-BAC-2", "relative viability": 0.41}, {"cell line": "NCI-H2087", "relative viability": 0.662}, {"cell line": "HCC-366", "relative viability": 0.189}, {"cell line": "NCI-H1666", "relative viability": 0.865}, {"cell line": "NCI-H647", "relative viability": 0.172}, {"cell line": "LK-2", "relative viability": 0.273}, {"cell line": "NCI-H2126", "relative viability": 0.597}, {"cell line": "NCI-H2342", "relative viability": 0.761}, {"cell line": "SK-MES-1", "relative viability": 0.867}, {"cell line": "H3255", "relative viability": 0.536}, {"cell line": "COR-L23", "relative viability": 0.203}, {"cell line": "COR-L 105", "relative viability": 1.19}, {"cell line": "LOU-NH91", "relative viability": 0.379}, {"cell line": "ChaGo-K-1", "relative viability": 0.252}, {"cell line": "NCI-H2170", "relative viability": 0.262}, {"cell line": "NCI-H3122", "relative viability": 0.193}, {"cell line": "HOP-62", "relative viability": 0.289}, {"cell line": "HCC-44", "relative viability": 0.707}, {"cell line": "SW 900", "relative viability": 0.47}, {"cell line": "LU99A", "relative viability": 0.163}, {"cell line": "BEN", "relative viability": 0.74}, {"cell line": "NCI-H650", "relative viability": 0.932}, {"cell line": "NCI-H1792", "relative viability": 0.658}, {"cell line": "NCI-H1563", "relative viability": 0.69}, {"cell line": "NCI-H358", "relative viability": 0.17}, {"cell line": "NCI-H661", "relative viability": 0.965}]}, {"compound": "CC(O)(CS(=O)(=O)c1ccc(F)cc1)C(=O)Nc1ccc(C#N)c(C(F)(F)F)c1 [Bicalutamide] + Nc1nc2[nH]cc(CCc3ccc(C(=O)N[C@@H](CCC(=O)O)C(=O)O)cc3)c2c(=O)[nH]1 [Pemetrexed] (partner 0.2 µM)", "test": "relative viability (nuclei count vs DMSO), 5 days (fraction); higher = more cells survive", "settings": "first compound 0.8 µM", "summary_of_the_method": "as §1", "values": [{"cell line": "NCI-H522", "relative viability": 1.22}, {"cell line": "NCI-H838", "relative viability": 0.261}, {"cell line": "NCI-H1650", "relative viability": 0.433}, {"cell line": "NCI-H2009", "relative viability": 1.11}, {"cell line": "NCI-H1993", "relative viability": 0.557}, {"cell line": "PC-14", "relative viability": 0.119}, {"cell line": "LCLC-103H", "relative viability": 0.469}, {"cell line": "NCI-H596", "relative viability": 0.56}, {"cell line": "NCI-H2228", "relative viability": 0.334}, {"cell line": "EMC-BAC-2", "relative viability": 0.489}, {"cell line": "NCI-H2087", "relative viability": 0.695}, {"cell line": "HCC-366", "relative viability": 0.191}, {"cell line": "NCI-H1666", "relative viability": 0.894}, {"cell line": "NCI-H647", "relative viability": 0.172}, {"cell line": "LK-2", "relative viability": 0.379}, {"cell line": "NCI-H2126", "relative viability": 0.785}, {"cell line": "NCI-H2342", "relative viability": 0.89}, {"cell line": "SK-MES-1", "relative viability": 0.981}, {"cell line": "H3255", "relative viability": 0.62}, {"cell line": "COR-L23", "relative viability": 0.184}, {"cell line": "COR-L 105", "relative viability": 1.08}, {"cell line": "LOU-NH91", "relative viability": 0.39}, {"cell line": "ChaGo-K-1", "relative viability": 0.251}, {"cell line": "NCI-H2170", "relative viability": 0.281}, {"cell line": "NCI-H3122", "relative viability": 0.197}, {"cell line": "HOP-62", "relative viability": 0.277}, {"cell line": "HCC-44", "relative viability": 0.637}, {"cell line": "SW 900", "relative viability": 0.562}, {"cell line": "LU99A", "relative viability": 0.206}, {"cell line": "BEN", "relative viability": 1.15}, {"cell line": "NCI-H1648", "relative viability": 0.745}, {"cell line": "NCI-H650", "relative viability": 0.994}, {"cell line": "NCI-H1792", "relative viability": 1.16}, {"cell line": "NCI-H1563", "relative viability": 0.919}, {"cell line": "NCI-H358", "relative viability": 0.218}, {"cell line": "NCI-H661", "relative viability": 0.942}]}, {"compound": "CC(O)(CS(=O)(=O)c1ccc(F)cc1)C(=O)Nc1ccc(C#N)c(C(F)(F)F)c1 [Bicalutamide] + Nc1nc2[nH]cc(CCc3ccc(C(=O)N[C@@H](CCC(=O)O)C(=O)O)cc3)c2c(=O)[nH]1 [Pemetrexed] (partner 0.2 µM)", "test": "relative viability (nuclei count vs DMSO), 5 days (fraction); higher = more cells survive", "settings": "first compound 2.53 µM", "summary_of_the_method": "as §1", "values": [{"cell line": "NCI-H522", "relative viability": 0.979}, {"cell line": "NCI-H838", "relative viability": 0.243}, {"cell line": "NCI-H1650", "relative viability": 0.365}, {"cell line": "NCI-H2009", "relative viability": 0.91}, {"cell line": "NCI-H1993", "relative viability": 0.597}, {"cell line": "PC-14", "relative viability": 0.117}, {"cell line": "LCLC-103H", "relative viability": 0.462}, {"cell line": "NCI-H596", "relative viability": 0.552}, {"cell line": "NCI-H2228", "relative viability": 0.323}, {"cell line": "EMC-BAC-2", "relative viability": 0.444}, {"cell line": "NCI-H2087", "relative viability": 0.613}, {"cell line": "HCC-366", "relative viability": 0.163}, {"cell line": "NCI-H1666", "relative viability": 0.879}, {"cell line": "NCI-H647", "relative viability": 0.151}, {"cell line": "LK-2", "relative viability": 0.303}, {"cell line": "NCI-H2126", "relative viability": 0.638}, {"cell line": "NCI-H2342", "relative viability": 0.751}, {"cell line": "SK-MES-1", "relative viability": 0.832}, {"cell line": "H3255", "relative viability": 0.571}, {"cell line": "COR-L23", "relative viability": 0.196}, {"cell line": "COR-L 105", "relative viability": 1.05}, {"cell line": "LOU-NH91", "relative viability": 0.378}, {"cell line": "ChaGo-K-1", "relative viability": 0.247}, {"cell line": "NCI-H2170", "relative viability": 0.25}, {"cell line": "NCI-H3122", "relative viability": 0.199}, {"cell line": "HOP-62", "relative viability": 0.327}, {"cell line": "HCC-44", "relative viability": 0.688}, {"cell line": "SW 900", "relative viability": 0.467}, {"cell line": "LU99A", "relative viability": 0.183}, {"cell line": "BEN", "relative viability": 0.837}, {"cell line": "NCI-H1648", "relative viability": 0.774}, {"cell line": "NCI-H650", "relative viability": 0.992}, {"cell line": "NCI-H1792", "relative viability": 0.831}, {"cell line": "NCI-H1563", "relative viability": 0.697}, {"cell line": "NCI-H358", "relative viability": 0.176}, {"cell line": "NCI-H661", "relative viability": 0.896}]}, {"compound": "CC(O)(CS(=O)(=O)c1ccc(F)cc1)C(=O)Nc1ccc(C#N)c(C(F)(F)F)c1 [Bicalutamide] + COc1cc2c(Oc3ccc(NC(=O)C4(C(=O)Nc5ccc(F)cc5)CC4)cc3F)ccnc2cc1OCCCN1CCOCC1 [Foretinib] (partner 0.25 µM)", "test": "relative viability (nuclei count vs DMSO), 5 days (fraction); higher = more cells survive", "settings": "first compound 0.08 µM", "summary_of_the_method": "as §1", "values": [{"cell line": "NCI-H1623", "relative viability": 0.883}, {"cell line": "NCI-H838", "relative viability": 0.994}, {"cell line": "NCI-H1650", "relative viability": 1.28}, {"cell line": "EBC-1", "relative viability": 0.0878}, {"cell line": "NCI-H1703", "relative viability": 0.342}, {"cell line": "NCI-H2009", "relative viability": 1.35}, {"cell line": "NCI-H1993", "relative viability": 0.738}, {"cell line": "PC-14", "relative viability": 0.951}, {"cell line": "LCLC-103H", "relative viability": 0.748}, {"cell line": "NCI-H596", "relative viability": 0.986}]}]}
